Results reported in patent US10370391B2, “Hydrogen peroxide-activable, anti-oxidant compounds and methods using same” (Beth Israel Deaconess Medical Center, Inc., priority 2014, dated 2019).

What was measured:
[1] = test system: H2O2-stimulated adult rat cardiomyocytes; assay: Protection from H2O2-induced cell death in ARVC; assay type: cell-based; conditions: H2O2 0.25 mM; concentration dependent; vs vehicle
Experimental: (§1) FIG. 4, comprising FIGS. 4A-4F, is a set of graphs, bar graphs and images illustrating anti-oxidant and anti-inflammatory effects of BRAP in vitro. […] The generation of ROS was monitored by flow cytometry as an indicator of DCF fluorescence. Fluorescence was analyzed in 10,000 cells with excitation at 480 nm and emission at 530 nm. FIG. 4C: Protective effect of BRAP on H2O2— stimulated adult rat cardiomyocytes. V=vehicle, *<0.05 vs. V+H2O2 (n=4). […] (n=4/group).
Since cardiovascular disease is one of the most common and clinically relevant problems associated with oxidative stress injury, the effect of BRAP on cellular protection from the H2O2-induced cell death was further examined using ARVC in vitro.

[2] = H2O2 scavenging by peroxalate chemiluminescence (diphenyl oxalate, rubrene)
Experimental: FIG. 21 is a bar graph illustrating H2O2-scavenging by BRAP-encapsulated PLGA microparticles. BRAP-encapsulated PLGA microparticles were incubated in H2O2 solution (10 μM) for 10 minutes, and the level of H2O2 was determined by peroxalate chemiluminesce using rubrene (1 mg) and diphenylperoxalate (10 mg).
Without wishing to be limited by any theory, BRAP could scavenge H2O2 during its H2O2-mediated boronate oxidation. This possibility was investigated using peroxalate chemiluminescence. Peroxalate chemiluminescence has been used as a versatile tool for the detection of a variety of chemical species including fluorescent molecules and H2O2 because of its excellent specificity and simplicity (Hadd, et al., 1999, J. Chem. Educ. 76:1237; Lee, et al., 2011, Bull. Korean Chem. Soc. 32:2187). […] A majority of H2O2 was scavenged by the same concentration of BRAP within 1 minutes.
The ability of the boronate compound to scavenge H2O2 was evaluated by measuring the chemiluminescence intensity after the reaction with diphenyl oxalate solution including rubrene. The boronate (1 μM, or 10 μM) was added in the H2O2 solution (10 μM). After 1 min reaction with H2O2, diphenyl oxalate solution was added to the H2O2 solution, and the chemiluminescence intensity was measured by using a luminometer (Femtomaster FB 12, Zylux Corporation, TN, US; FIG. 13).
The ability of BRAP to scavenge H2O2 was evaluated by measuring the chemiluminescence intensity after the reaction with diphenyl oxalate solution including rubrene. BRAP (1 μM, 5 μM, 10 μM, 20 μM) was added in the H2O2 solution (10 μM). After 1, 5 or 10 min reaction with H2O2, diphenyl oxalate solution was added to the H2O2 solution, and the chemiluminescence intensity was measured by using a luminometer (Femtomaster FB 12, Zylux Corporation, TN, US).

[3] = test system: mouse embryonic fibroblast (NIH 3T3) cells; assay: MTT cytotoxicity assay, NIH 3T3; assay type: cell-based; conditions: concentrations as high as 5 mM, 24 hours of incubation
Experimental: FIG. 8, comprising FIGS. 8A-8B, is a set of bar graphs illustrating biocompatibility profiles of BRAP assessed by MTT assay in human embryonic kidney (HEK 293) cells (FIG. 8A) and mouse embryonic fibroblast (NIH 3T3) cells (FIG. 8B).
3-(4,5-Dimethylthiazil-2yl)-2,5-diphenyltetrazolium bromide (MTT) assay was performed to evaluate the cytotoxicity of BRAP. NIH 3T3 cells were cultured at a density of 1×10^5 cells/well in a 24 well plate, and RAW 264.7 cells and HEK cells were also cultured at a density of 2×10^5 cells/well in a 24 well plate. Cells were incubated for 24 hours to reach ˜80% confluency. Cells were treated with various amount of BRAP and incubated for 24 hours. Each well was given 100 μL of MTT solution and was incubated for 4 h. 200 μL of dimethyl sulfoxide (DMSO) were added to each well to dissolve the resulting formazan crystals. After 10 min incubation, the absorbance at 570 nm was measured using a microplate reader (Biotek Instruments, Winooski, Vt.). The cell viability was determined by comparing the absorbance of BRAP treated cells that of control cells.

iNOS = iNOS level in LPS-stimulated macrophage cells; assay type: cell-based, mouse
Experimental: as §1
The anti-inflammatory effects of BRAP on LPS-stimulated cells were investigated by measuring the level of inflammatory cytokines such as TNF-α (tumor necrosis factor-alpha) and iNOS (inducible nitric oxide synthases) (FIGS. 4E-4F). […] These observations indicate that BRAP, as well as BRAP-encapsulated PLGA microparticles, is able to scavenge overproduced H2O2 and serve as a H2O2-activable anti-oxidant. Further, the enhanced anti-oxidant activity of BRAP is derived from the combined effects of H2O2-scavenging boronic esters and HBA generation after H2O2-mediated boronate oxidation.

[4] = Water solubility of isolated BRAP; assay type: physicochemical; conditions: white powder as obtained
Excerpt: H2O2-activable anti-oxidant prodrug BRAP was synthesized by reacting (4-(hydroxymethyl)phenyl)boronic acid and 2-(hydroxymethyl)-2-methylpropane-1,3-diol at room temperature (FIG. 1A). BRAP was obtained as white water-soluble powder and its chemical structure was confirmed by ^1H NMR (FIG. 1B).

[5] = test system: mouse macrophage (RAW 264.7) cells stimulated by LPS; assay: Intracellular ROS generation in LPS-stimulated macrophages (DCFH-DA, flow cytometry); assay type: cell-based; conditions: BRAP 0.25 mM, compared with 0.5 mM of HBA; LPS 1 μg/mL
Experimental: as §1
The anti-oxidant activities of BRAP were examined using mouse macrophage (RAW 264.7) and fibroblast (NIH/3T3) cells stimulated by LPS (lipopolysaccharide) (FIGS. 4A-4B). Intracellular ROS production in the stimulated cells was analyzed by flow cytometry using DCFH-DA ([…]-diacetate), which can be oxidized by the action of various intracellular oxidants such as H2O2 and hydroxyl radical to become fluorescent […] (DCF) (Kim, et al., 2011, Biomat. 32:3021; Cho, et al., 2012, Adv. Funct. Mat. 22:4038). Untreated cells have no significant DCF fluorescence.

[6] = Activation of BRAP by H2O2, UV spectroscopy (absorbance at 273 nm); assay type: physicochemical; conditions: after 90 minutes of treatment with H2O2
Experimental: The activation of BRAP by H2O2 was also studied using UV spectroscopy. BRAP was mixed with H2O2 and the change in UV absorbance was monitored over time.
BRAP was dissolved in PBS (pH 7.4) at a concentration of 1 mM and was incubated at 37° C. in the presence of 100 μM of H2O2. The concentration of HBA generated from BRAP was measured using a UV spectrometer at appropriate time points.

[7] = test system: adult rat ventricular cardiomyocytes (ARVC); assay: MTT cytotoxicity assay, ARVC; assay type: cell-based; conditions: concentrations as high as 5 mM, 24 hours of incubation
Excerpt: FIG. 3, comprising FIGS. 3A-3B, is a set of bar graphs illustrating biocompatibility profiles of BRAP assessed by MTT assay in mouse macrophage (RAW264.7) cells (FIG. 3A) and ARVC (FIG. 3B).

- water solubility [4]: water-soluble
Structure (SMILES): CC1(CO)COB(c2ccc(CO)cc2)OC1 [BRAP, (4-(5-(hydroxymethyl)-5-methyl-1,3,2-dioxaborinan-2-yl)phenyl)methanol]
- protection from H2O2-induced cell death [1]: significant protection
- chemiluminescence intensity (H2O2 scavenging) ([2]; H2O2 solution 10 μM, BRAP, concentration-dependent): significant reduction in chemiluminescence intensity
- time in which a majority of H2O2 was scavenged ([2]; same concentration of BRAP as H2O2): ≤ 1 min
- cytotoxicity (MTT) [3]: no significant cytotoxicity
- iNOS level (iNOS): significantly suppressing
- inhibition of LPS-induced ROS generation [5]: significantly stronger inhibitory effects
- change in UV absorbance (HBA generation) [6]: no further increase in UV absorbance
- cytotoxicity (MTT) [7]: no significant cytotoxicity
